A word on the inhibition: it is the relative decrease from the control value, in per cent.

Results on ten compounds are retold here after patent US5288726A, “Tetrahydrothienopyridine derivatives, furo and pyrrolo analogs thereof and their preparation and uses for inhibiting blood platelet aggregation” (Ube Industries Limited, priority 1991, dated 1994).

This assay concerns blood platelet aggregation. Briefly: Inhibition of blood platelet aggregation (ex vivo, ADP or collagen induced, rats dosed orally). As to conditions: rat, oral, 4 hours before test, ADP or collagen (inducer not given), read-out: % Inhibition of blood platelet aggregation (Test Ex. 2). In kind it is in vivo, rat (SD strain, female). Here is the method: Inhibition of Blood Platelet Aggregation Female rats of the SD strain (supplied by Japan Charles River Inc.) were divided into groups of 4 each for the test. […] As a control, a 5% w/v aqueous solution of gum arabic was administered to a control group of rats, without any test drug. Blood platelet aggregation was tested according to the method of P. Lumley and P. P. A. Humphrey [J. Pharmacol. Methods 6, 153-166 (1981)]with a partial modification. […] The blood platelet aggregation rate was calculated from the following equation. […] The inhibitory effect was calculated as the percent inhibition of the treated groups as compared with the control groups.

In the case of `O=C(C1CC1)C(c1ccccc1Cl)N1CCc2sccc2C1` (stereo not drawn) [Compound No. 60, 5-(2-Chloro-α-cyclopropylcarbonylbenzyl)-4,5,6,7-tetrahydrothieno[3,2-c]pyridine], the inhibition at 3 mg/kg is 74.2% and the inhibition at 10 mg/kg was 100%.
With `CC(=O)Oc1cc2c(s1)CCN(C(C(=O)C1CC1)c1ccccc1F)C2` (stereo not drawn) [Compound No. 190, 2-Acetoxy-5-(α-cyclopropylcarbonyl-2-fluorobenzyl)4,5,6,7-tetrahydrothieno[3,2-c]pyridine], the inhibition at 1 mg/kg amounted to 100%.
With `O=C1C=C2CN(C(C(=O)C3CC3)c3ccccc3Cl)CCC2S1` (stereo not drawn) [Compound No. 233, 5-(2-Chloro-α-cyclopropylcarbonylbenzyl)-2-oxo-2,4,5,6,7,7a-hexahydrothieno[3,2-c]pyridine], the inhibition at 10 mg/kg is 98.9%.
Regarding `CCC(=O)C(c1ccccc1F)N1CCc2sccc2C1` (stereo not drawn) [Compound No. 19, 5-(2-Fluoro-α-propionylbenzyl)-4,5,6,7-tetrahydrothieno[3,2-c]pyridine], the inhibition at 3 mg/kg was found to be 29.3% and the inhibition at 10 mg/kg turned out to be 97.8%.
With `Clc1ccccc1CN1CCc2sccc2C1` [Compound A, 5 (2-chlorobenzyl)-4,5,6,7-tetrahydrothieno[3,2-c]pyridine, reference compound], the inhibition at 30 mg/kg (30 mg/kg (footnote *)) was determined as 3.7%.
`CCCC(=O)Oc1cc2c(s1)CCN(C(C(=O)C1CC1)c1ccccc1F)C2` (stereo not drawn) [Compound No. 194, 2-Butyryloxy-5-(α-cyclopropylcarbonyl-2-fluorobenzyl)4,5,6,7-tetrahydrothieno[3,2-c]pyridine]: the inhibition at 1 mg/kg came to 100%.
Take `O=C(C1CC1)C(c1ccccc1F)N1CCc2sccc2C1` (stereo not drawn) [Compound No. 59, 5-(α-Cyclopropylcarbonyl-2-fluorobenzyl)-4,5,6,7-tetrahydrothieno[3,2-c]pyridine]: the inhibition at 1 mg/kg came out at 57.1% and the inhibition at 3 mg/kg came out at 98.1%.
In the case of `O=C1C=C2CN(C(C(=O)C3CC3)c3ccccc3F)CCC2S1` (stereo not drawn) [Compound No. 235, 5-(α-Cyclopropylcarbonyl-2-fluorobenzyl)-2-oxo-2,4,5,6,7,7a-hexahydrothieno[3,2-c]pyridine], the inhibition at 1 mg/kg was 98.8%.
The same measure, in the same setting: under `CC(C)(C)C(=O)Oc1cc2c(s1)CCN(C(C(=O)C1CC1)c1ccccc1F)C2` (stereo not drawn) [Compound No. 196, 5-(α-Cyclopropylcarbonyl-2-fluorobenzyl)-2-pivaloyloxy-4,5,6,7-tetrahydrothieno[3,2-c]pyridine] stands 97.6%.
As to `COC(=O)C(c1ccccc1Cl)N1CCc2sccc2C1` (stereo not drawn) [Compound B, 5-(2-chloro-α-methoxycarbonylbenzyl) 4,5,6,7-tetrahydrothieno[3,2-c]pyridine, reference compound], the inhibition at 3 mg/kg turned out to be 25.7% and the inhibition at 10 mg/kg worked out at 98.8%.
